Test results from patent publication US11339417B2, “Amplifier system and controls for dielectrophoretic tracking in microfluidic devices” (University of Virginia Patent Foundation, priority 2014, dated 2022).
“And” between values parts separate entries of the source, which are not always exact repeats. Equal entries are not always repeated.

Key:
[1] = tested on: Cryptosporidium parvum oocysts; assay: Dielectrophoretic characterization of oocysts (DEP tracking, single shell model fit); assay type: cell-based; conditions: 100 mg L^−1 for 4 hours
[2] = tested on: Cryptosporidium parvum oocysts; assay: Excystation of oocysts after disinfection treatment; assay type: cell-based; conditions: oocysts treated with 100 mg L^−1 for 4 hours; untreated 89.5%
Experimental: For treatment with silver nanoparticles (AgNPs), the animal infectivity experiment was done after the oocysts were treated with 100 mg L^−1 proteinate capped AgNPs (Argenol) (˜15 nm) for 4 hours.
After each disinfection treatment, the oocysts were treated with 10% bleach (Bleach-Rite) for 30 minutes in a micro-centrifuge tube at room temperature, followed by vortexing every 10 minutes. The suspension was incubated in a microfluidic chamber with a glass cover-slip for an hour, for real-time recording of the excystation; i.e. release of sporozoites from the oocyst. The excystation was examined by inverted microscopy using 63× oil immersion phase and DIC objectives. […] The percentage of the excystation was calculated as: (# of excysted oocytsl # of total oocyst)×100.^29 For mouse model infectivity studies,^12 all mice were malnourished for a period of 13 days before experiments. For every six mice fed with the oocysts for each treatment, three other mice were fed with untreated oocysts as positive control.

[3] = tested on: C. difficile VPI11186 (non-toxigenic, NTCD); assay: Growth measurement (OD600), NTCD strain; assay type: cell-based, Clostridium difficile
Experimental: (§1) Growth measurement. 250 μL of the overnight cultured bacteria suspension and 750 μL of the BHI broth, with or without vancomycin were mixed in Eppendorf tubes. The optical density at a wavelength of 600 nm (OD600) of the mixed bacteria suspensions, measured by Spectrophotometry (Eppendorf Biophotometer) before incubation, was indexed as the “0 hour” time point. The OD600 number at later time points (4 and 24 hours) for respective strain at each condition was normalized to its 0 hour point.
(§2) In order to evaluate the sensitivity of DEP methods versus the current state of the art, we benchmark the DEP velocity data for HTCD and NTCD C. difficile strains after various levels of antibiotic treatment versus conventional diagnostic measures for the loss of C. difficile functionality, such as toxin production and growth rate values. To enable the comparison of DEP data across the range of C. difficile strains, we choose a frequency of 1 MHz, since all strains show some level of pDEP before and after antibiotic treatment. For measurements of alteration in toxin production level and growth rate of C. difficile strains after antibiotic treatment, it is necessary to culture the microbial cells with the antibiotic over a period of 4-24 hours, to enable sufficient sensitivity for the measurements. […] Furthermore, the results after antibiotic treatment for a particular period of time are compared against their respective values on untreated microbials for the same period of culture time (this control value for each treatment time is indicated as “Un-0”, “Un-4” or “Un-24” in FIGS. 15c-15e).

[4] = tested on: C. difficile ATCC630 (low-toxigenic, LTCD); assay: Dielectrophoretic (DEP) characterization of C. difficile LTCD strain after vancomycin treatment; assay type: cell-based, Clostridium difficile; conditions: vancomycin 1 mg/mL, untreated 500 kHz
Experimental: (§3) Bacteria strains preparation. II three C. difficile strains were purchased from ATCC. The bacteria were cultured in brain heart infusion (BHI) broth (BD BBL Brain Heart Infusion) at 37° C. overnight under anaerobic condition before further antibiotic treatment or dielectrophoretic experiments. 250 μL of the overnight cultured bacteria suspension and 750 μL of the BHI with vancomycin (Novaplus) or without vancomycin for the control groups were mixed in Eppendorf tubes and incubated at 37° C. for 4 hours or 24 hours. The vancomycin concentration for VPI10463 (high-toxigenic, HTCD) was 2 mg/mL and 1 mg/mL for ATCC630 (low-toxigenic, LTCD) and VPI11186 (non-toxigenic, NTCD). […]
(§4) Dielectrophoretic characterization of C. difficile. […] The trajectory of the unlabeled C. difficile of each strain type was observed under this field, as high frame per second movies to quantify the DEP velocity. For experiments within mixed C. difficile samples, the trapped microbials were released and analyzed with the immunoassay to confirm toxigenicity. […]
(§5) FIGS. 2a and 2b show the electrode-less device with external electrodes (1 cm apart) to initiate localized microbial trapping in the constriction region. […] In this manner, as per prior work^33, the translational velocity under the DEP trapping force is measured for ˜20 individual microbial cells to quantify the DEP spectra. […]

[5] = tested on: C. difficile VPI10463 (high-toxigenic, HTCD); assay: Dielectrophoretic (DEP) characterization of C. difficile HTCD strain after vancomycin treatment; assay type: cell-based, Clostridium difficile
Experimental: Bacteria strains preparation. II three C. difficile strains were purchased from ATCC. The bacteria were cultured in brain heart infusion (BHI) broth (BD BBL Brain Heart Infusion) at 37° C. overnight under anaerobic condition before further antibiotic treatment or dielectrophoretic experiments. 250 μL of the overnight cultured bacteria suspension and 750 μL of the BHI with vancomycin (Novaplus) or without vancomycin for the control groups were mixed in Eppendorf tubes and incubated at 37° C. for 4 hours or 24 hours. The vancomycin concentration for VPI10463 (high-toxigenic, HTCD) was 2 mg/mL and 1 mg/mL for ATCC630 (low-toxigenic, LTCD) and VPI11186 (non-toxigenic, NTCD). Prior to the dielectrophoresis experiments, the BHI broth was replaced with 8.8% sucrose water and re-adjusted with BHI broth to optimize the medium conductivity 105±5% mS/m for enabling DEP-based distinction of C. difficile strains from mixed samples. All three strains were confirmed to be viable within this altered BHI media over the timeframe of the DEP experiments, as per the colony forming unit (CFU) assay.
as §4, with “difficile. The experimental setup has been described in our prior work. Briefly, Standard PDMS (Poly-di-methyl-siloxane) micro-molding methods were used to micro-fabricate channels with sharp lateral constrictions (1000 μm to 15 μm).” for “difficile.”
as §5

[6] = tested on: C. difficile VPI10463 (high-toxigenic, HTCD); assay: Toxicity enzyme-linked immunosorbent assay, total toxin (A/B) production; assay type: cell-based, Clostridium difficile
Experimental: Toxicity enzyme-linked immunosorbent assay. Total toxin (A/B) production was measured using the C. difficile TOX A/B II kit (Tech-Lab) according to the manufacturer's instructions. Culture supernatants were collected at 0, 4 and 24 hours by centrifugation at 3500 rcf for 5 min and stored at −20° C. The supernatants of the VPI110463 strain were diluted 1 to 20, while the supernatants of the VPI11186 strain were undiluted. Each specimen was run in duplicate. Total toxin levels were determined by measuring A450 under a 96 well plate spectrophotometry. The A450 number at each time point (4 hours and 24 hours) of each strain at each condition was normalized to its 0 hour time point.
as §2

[7] = tested on: C. difficile VPI11186 (non-toxigenic, NTCD); assay: Dielectrophoretic (DEP) characterization of C. difficile NTCD strain after vancomycin treatment; assay type: cell-based, Clostridium difficile
Experimental: as §3, §4, §5

[8] = tested on: C. difficile VPI10463 (high-toxigenic, HTCD); assay: Growth measurement (OD600), HTCD strain; assay type: cell-based, Clostridium difficile
Experimental: as §1, §2

[9] = 4 hours of vancomycin treatment
[10] = 24 hours of vancomycin treatment

## O=[N+]([O-])[O-].[Ag+] [AgNO3, silver nitrate]
[1]
  DEP response of treated versus untreated oocysts at 100 kHz and at 400 kHz: not significantly altered
[2]
  Excystation rate: 71.4% and 70%

## CN[C@H](CC(C)C)C(=O)N[C@H]1C(=O)N[C@@H](CC(N)=O)C(=O)N[C@H]2C(=O)N[C@H]3C(=O)N[C@H](C(=O)N[C@H](C(=O)O)c4cc(O)cc(O)c4-c4cc3ccc4O)[C@H](O)c3ccc(c(Cl)c3)Oc3cc2cc(c3O[C@@H]2O[C@H](CO)[C@@H](O)[C@H](O)[C@H]2O[C@H]2C[C@](C)(N)[C@H](O)[C@H](C)O2)Oc2ccc(cc2Cl)[C@H]1O [vancomycin]
[3]; [9]
  Difference in growth rate versus the untreated sample (Un-4): 0.74
  Relative growth rate (OD600 normalized to 0 hour): 1.1 times
[3]; [10]
  Difference in growth rate versus the untreated sample (Un-24): 3.3
  Relative growth rate (OD600 normalized to 0 hour): 1.05 times
[4]
  DEP crossover frequency after vancomycin treatment: 300 kHz
[5]; HTCD / hypervirulent TCD strain, vancomycin 2 mg/mL, untreated 300 kHz or 400 kHz
  DEP crossover frequency after vancomycin treatment: 600 kHz and 900 kHz
[5]; HTCD, 1 MHz, 4 hours of vancomycin treatment, untreated 30.7 μm/s
  DEP velocity after vancomycin treatment: 7.6 μm/s
[5]; HTCD, 400 kHz, untreated HTCD shows pDEP
  DEP behavior at 400 kHz of vancomycin treated cells: some residual level of nDEP and nDEP
[6]; [9]
  Difference in toxin production level versus the control (Un-4): 0.55
  Relative toxin production (normalized to 0 hour): 1.05 times
[6]; [10]
  Difference in toxin production level versus the control (Un-24): 7.5
  Relative toxin production (normalized to 0 hour): small reduction
[7]; NTCD strain, vancomycin 1 mg/mL, untreated 900 kHz
  DEP crossover frequency after vancomycin treatment: 600 kHz
[7]; NTCD, 1 MHz, 4 hours of vancomycin treatment, untreated 16 μm/s
  DEP velocity after vancomycin treatment: ~7 μm/s
[8]; [9]
  Growth rate reduction: minimal growth rate reduction
  Relative growth rate (OD600 normalized to 0 hour): 1.51 times
[8]; [10]
  Difference in growth rate versus the control (Un-24): 2.2
  Relative growth rate (OD600 normalized to 0 hour): 1.61 times
